Results on eleven molecules are retold here after ChEMBL document CHEMBL1201862, “PubChem BioAssay data set” (2004).

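Briefly, cells in 96-well plates were exposed to five compound concentrations for 48 h, and endpoints were estimated by linear interpolation. Abbreviation: GI50, concentration required for 50% inhibition of growth.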 Active and inactive are the calls of the source. Cut-off read from the data, not from the text of the source: active = GI50 up to about 1.1 µM and inactive = higher.

Test systems include CCRF-CEM; OVCAR-3; UO-31; RXF 393; TK-10; RPMI-8226; SR; SK-MEL-5; SN12C; HCT-15; SNB-19; NCI-H23; Hs-578T; M14; OVCAR-4; SK-MEL-2; Malme-3M; UACC-257; MDA-N; SF-295.
Test in all cases: NCI-60 cell line screen, 48 h

As for `COc1ccc(C2C3=C(CCCC3=O)N(c3ccccc3)C3=C2C(=O)CCC3)cc1`, the GI50 is > 100 µM (inactive) in the assay with CCRF-CEM; 89.7 µM (inactive) with OVCAR-3; > 100 µM (inactive) with UO-31; 19.5 µM (inactive) in the assay on RXF 393; > 100 µM (inactive) with TK-10; > 100 µM (inactive) in the assay with RPMI-8226. Further, the GI50 in the assay with SR is > 100 µM (inactive); with SK-MEL-5, > 10 µM (inactive); in the assay with SN12C, > 100 µM (inactive); in the assay on HCT-15, more than 100 µM; with SNB-19, 58.9 µM (inactive); in the assay with NCI-H23, > 100 µM (inactive). Besides, the GI50 in the assay with Hs-578T is 43.2 µM (inactive); in the assay on M14, > 100 µM (inactive); in the assay with OVCAR-4, 61.5 µM (inactive).
Regarding `C/C1=C/C2=CC(C)C[C@@H]2C(=O)[C@]2(C)C(=O)CC(C)(C)[C@H]2CC1=O` (stereo not given in full), the GI50 is 15 µM (inactive) in the assay on CCRF-CEM; > 50 µM (inactive) in the assay on OVCAR-3; > 50 µM (inactive) with SK-MEL-2; > 50 µM (inactive) with UO-31; > 50 µM (inactive) in the assay on Malme-3M; > 50 µM (inactive) in the assay with UACC-257. The GI50 is > 50 µM (inactive) with TK-10; 34.8 µM (inactive) with RPMI-8226; > 50 µM (inactive) in the assay with MDA-N; > 50 µM (inactive) with SK-MEL-5; > 50 µM (inactive) with SN12C; more than 50 µM in the assay with HCT-15. Further, the GI50 in the assay on SF-295, in the assay with SNB-19, with NCI-H23, in the assay on Hs-578T, in the assay with M14 and in the assay with OVCAR-4 was > 50 µM (inactive) each time.
Regarding `O=C(N/N=C\c1cccs1)c1ccncc1`, the GI50 in the assay on CCRF-CEM, in the assay with OVCAR-3, with SK-MEL-2, in the assay with UO-31, in the assay with Malme-3M and in the assay with RXF 393 was > 100 µM (inactive) throughout. Besides, the GI50 with UACC-257, in the assay on TK-10, with RPMI-8226, in the assay on SR, in the assay with SK-MEL-5 and in the assay with SN12C was > 100 µM (inactive) throughout. The GI50 was more than 100 µM in the assay with HCT-15; > 100 µM (inactive) in the assay on SF-295; > 100 µM (inactive) in the assay on SNB-19; > 100 µM (inactive) with NCI-H23; > 100 µM (inactive) in the assay with Hs-578T; > 100 µM (inactive) with M14. In addition, the GI50 in the assay on OVCAR-4 is > 100 µM (inactive).
For the molecule `C[C@@H]1CC[C@@H]2[C@@H](C1)O[C@@H]([C@@H](C)OCc1ccccc1)SC2(C)C`, the GI50 in the assay with CCRF-CEM is 16.6 µM (inactive); with SK-MEL-2, 15.8 µM (inactive); in the assay on UO-31, 16.4 µM (inactive); with Malme-3M, 17.2 µM (inactive); in the assay on RXF 393, 15.4 µM (inactive); in the assay on UACC-257 it was 19.4 µM (inactive). Further, the GI50 in the assay with TK-10 was 21.7 µM (inactive); in the assay on RPMI-8226 it was 16.5 µM (inactive); in the assay with MDA-N, 18.4 µM (inactive); in the assay on SR it was 17.5 µM (inactive); in the assay on SK-MEL-5, 16.3 µM (inactive); with SN12C, 17.2 µM (inactive). Also, the GI50 in the assay with HCT-15 was 19.5 µM; in the assay on SF-295, 16.6 µM (inactive); in the assay on SNB-19 it was 19 µM (inactive); in the assay on NCI-H23, 21.7 µM (inactive); with M14, 19.3 µM (inactive); in the assay on OVCAR-4, 20.1 µM (inactive).
As for `CC(NC(=O)/C(=C/c1ccccc1O)NC(=O)c1ccccc1)C(=O)O` (stereo not given), the GI50 with CCRF-CEM is > 100 µM (inactive); in the assay on UO-31 it was 17.5 µM (inactive); in the assay with Malme-3M, 21 µM (inactive); with RXF 393, 21.8 µM (inactive); in the assay with UACC-257, 70 µM (inactive); in the assay with TK-10, 44.3 µM (inactive). The GI50 in the assay on RPMI-8226 is > 100 µM (inactive); with MDA-N it was 8.13 µM (inactive); in the assay on SK-MEL-5 it was 55.2 µM (inactive); with SN12C, 21.6 µM (inactive); in the assay on HCT-15 it was 24.1 µM; in the assay with SF-295, 21.4 µM (inactive). The GI50 with SNB-19 was 20.6 µM (inactive); in the assay on NCI-H23 it was > 100 µM (inactive); in the assay on Hs-578T, 17.4 µM (inactive); with M14, 51.3 µM (inactive); with OVCAR-4, 40.4 µM (inactive).
As to `O=C1CCCC1CC(CN1CCOCC1)Sc1nnnn1-c1ccccc1` (stereo not given), the GI50 with CCRF-CEM was > 100 µM (inactive); in the assay with OVCAR-3, > 100 µM (inactive); in the assay on SK-MEL-2 it was > 100 µM (inactive); in the assay with UO-31 it was 96.8 µM (inactive); with Malme-3M, > 100 µM (inactive); with RXF 393, 34.6 µM (inactive). For the same molecule, the GI50 is > 100 µM (inactive) in the assay with UACC-257; 42.1 µM (inactive) in the assay with RPMI-8226; > 100 µM (inactive) with MDA-N; > 100 µM (inactive) in the assay on SR; > 100 µM (inactive) with SK-MEL-5; > 100 µM (inactive) in the assay with SN12C. Also, the GI50 in the assay on SF-295, in the assay on SNB-19, with NCI-H23, with M14 and in the assay with OVCAR-4 was > 100 µM (inactive) throughout.
For `O=c1onc2c3ccccc3ncn12`, the GI50 in the assay with CCRF-CEM, in the assay on OVCAR-3, in the assay with SK-MEL-2, in the assay on UO-31, in the assay on RXF 393 and in the assay with UACC-257 was > 100 µM (inactive) throughout. The GI50 with TK-10 is > 100 µM (inactive); in the assay with RPMI-8226 it was > 100 µM (inactive); in the assay on SR, > 100 µM (inactive); in the assay on SK-MEL-5 it was > 100 µM (inactive); with SN12C it was > 100 µM (inactive); in the assay on HCT-15, more than 100 µM. In addition, the GI50 in the assay on SF-295, in the assay with SNB-19, in the assay with NCI-H23, in the assay with Hs-578T, in the assay on M14 and in the assay with OVCAR-4 was > 100 µM (inactive) throughout.
For `COc1ccc(C2OC(N)=C(C#N)C3=C2CCCC3C)cc1OC` (stereo not given), the GI50 with CCRF-CEM, with OVCAR-3, in the assay on SK-MEL-2, with UO-31, in the assay with Malme-3M and in the assay with RXF 393 was > 100 µM (inactive) throughout. Further, the GI50 in the assay with UACC-257, with TK-10, in the assay on RPMI-8226, in the assay on MDA-N, in the assay with SK-MEL-5 and in the assay on SN12C was > 100 µM (inactive) in each case. The GI50 in the assay on HCT-15 was more than 100 µM; in the assay with SF-295 it was > 100 µM (inactive); in the assay with SNB-19 it was > 100 µM (inactive); in the assay with NCI-H23 it was > 100 µM (inactive); with Hs-578T it was > 100 µM (inactive); in the assay on M14 it was > 100 µM (inactive).
In the case of `Cc1c2c(C(N)=O)nccc2c(C)c2c1c1ccccc1n2Cc1ccccc1`, the GI50 is 23.3 µM (inactive) in the assay on CCRF-CEM; 3.97 µM (inactive) in the assay with OVCAR-3; 18.8 µM (inactive) in the assay with SK-MEL-2; 16.4 µM (inactive) in the assay with UO-31; 11.9 µM (inactive) in the assay on RXF 393; 43.3 µM (inactive) in the assay on UACC-257. For the same molecule, the GI50 in the assay on TK-10 was 15.9 µM (inactive); in the assay on RPMI-8226, 26.8 µM (inactive); with MDA-N, 29 µM (inactive); in the assay on SK-MEL-5, 34.8 µM (inactive); in the assay with SN12C, 17.7 µM (inactive); in the assay with HCT-15, 16 µM. In addition, the GI50 in the assay on SF-295 was 10.8 µM (inactive); with SNB-19, 14.8 µM (inactive); in the assay with NCI-H23, 23.1 µM (inactive); with Hs-578T it was 6.07 µM (inactive); in the assay on M14, 56.2 µM (inactive); with OVCAR-4 it was 2.61 µM (inactive).
Turning to `Nc1nc(-c2ccccc2/N=N/N2CCCC2)nc2ccccc12`, the GI50 with CCRF-CEM was 3.07 µM (inactive); in the assay on OVCAR-3, 1.85 µM (inactive); with SK-MEL-2, 13.2 µM (inactive); in the assay with UO-31, 1.57 µM (inactive); in the assay with Malme-3M, 3.28 µM (inactive); in the assay on RXF 393, 5.73 µM (inactive). Moreover, the GI50 in the assay with UACC-257 was 3.51 µM (inactive); in the assay on TK-10, 3.63 µM (inactive); with RPMI-8226, 2 µM (inactive); in the assay on SR, 0.413 µM (active); in the assay with SK-MEL-5, 4.5 µM (inactive); in the assay with SN12C, 1.59 µM (inactive). Further, the GI50 in the assay with HCT-15 was 2.7 µM; in the assay on SF-295, 2.32 µM (inactive); with SNB-19, 3.69 µM (inactive); in the assay on NCI-H23 it was 2.2 µM (inactive); in the assay with Hs-578T it was 3.39 µM (inactive); in the assay on M14, 3.08 µM (inactive). Further, in the assay with OVCAR-4, the GI50 is 5.96 µM (inactive).
Consider `CC1=C(C(=S)Nc2ccc(Cl)c(C(=O)OC(C)C)c2)SCCO1`, for which the GI50 is 18.2 µM (inactive) with CCRF-CEM; 22.8 µM (inactive) in the assay with OVCAR-3; 21.5 µM (inactive) with SK-MEL-2; 14.9 µM (inactive) with UO-31; 20.3 µM (inactive) in the assay on Malme-3M; 18.5 µM (inactive) with UACC-257. Moreover, the GI50 in the assay with TK-10 is 22.2 µM (inactive); in the assay with RPMI-8226, 21.9 µM (inactive); in the assay on MDA-N, 18.6 µM (inactive); in the assay on SK-MEL-5, 16.9 µM (inactive); in the assay with SN12C, 16.7 µM (inactive); with HCT-15 it was 17.1 µM. Moreover, the GI50 was 15.7 µM (inactive) with SF-295; 16.7 µM (inactive) in the assay on SNB-19; 20.6 µM (inactive) in the assay with NCI-H23; 29.3 µM (inactive) in the assay on Hs-578T; 18.8 µM (inactive) in the assay with M14; 12.3 µM (inactive) with OVCAR-4.
